The record followed here is PubChem BioAssay (NCI).

Where “and” joins values, the source holds several entries; their conditions need not be identical. Identical values can stand only once.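 Growth conditions: 96-well plates. Treatment: test compound, 48 hours, 5 concentrations. Analysis: linear interpolation between bracketing concentrations; unreached endpoints set to highest concentration. The concentration for 50% growth inhibition is given as GI50. TGI: total growth inhibition.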

What all share (assay): NCI tumour cell line growth inhibition, 48 h
For assay [1], the system named is 786-0 renal.
Assay [2] has as its system HCC-2998 colon.
The subject of assay [3] is IGROV1 ovarian.
Assay [4] concerns K-562 leukemia.
Assay [5] relates to OVCAR-4 ovarian.
In assay [6] the test system is SF-539 CNS.
Assay [7] concerns SK-OV-3 ovarian.
Assay [8] has as its system SN12C renal.
Assay [9] relates to SNB-19 CNS.
Assay [10] relates to SNB-75 CNS.

In the case of `O=C(Cc1ccc(F)c(Cl)c1)Nc1cc(C2(C(F)(F)F)CC2)nn1CC1CCCCC1`, the GI50 in [1] was 4.34 µM; in assay [2], 4.45 µM; in assay [3] it was 4.64 µM; in assay [4], 4.28 µM; in assay [5] it was 3.27 µM; in assay [6] it was 4.86 µM. Also, the GI50 was 3.24 µM in [7], 4.46 µM in assay [8], 4.78 µM in [9] and 0.808 µM in [10]. The TGI in [1], in assay [2], in [3], in [4], in [5] and in assay [6] was above 15 µM throughout. Also, the TGI is 11 µM in assay [7], above 15 µM in assay [8], above 15 µM in [9] and 5.99 µM in [10].
For `COc1ccc2nc3ccccc3c(NCc3ccc(F)cc3)c2c1`, the GI50 in [1] was 1.87 µM; in assay [2], 1 µM; in [3], 1.8 µM; in assay [4], 1.52 µM; in assay [5], 2.27 µM; in assay [6] it was 1.76 µM. Further, the GI50 is 2.79 µM in [7], 1.83 µM in assay [8], 2.04 µM in assay [9] and 2.46 µM in [10]. In addition, the TGI in [1] is 6.82 µM; in assay [2], 2.1 µM; in assay [3], 6.65 µM; in assay [4], 6.94 µM; in [5] it was 8.23 µM; in [6], 6.54 µM. Besides, the TGI in [7] was found to be 10.4 µM; in assay [8], 7.32 µM; in assay [9], 7.62 µM; in assay [10], 9.2 µM.
For `NNC(=O)CNc1cccc(Br)c1`, the TGI in [1], in assay [2], in assay [3], in assay [4], in assay [5] and in assay [6] was above 100 µM throughout. Moreover, the TGI in assay [7], in assay [8], in assay [9] and in assay [10] was above 100 µM in each case.
As to `O=C(Nc1cc(C(F)(F)F)cc(C(F)(F)F)c1)c1cc(Cl)ccc1O`, the GI50 in [1] is 0.269 µM and 0.293 µM; in assay [2] it was 0.307 µM and 0.349 µM; in assay [3], 0.271 µM and 0.357 µM; in assay [4], 0.189 µM and 0.161 µM; in assay [5] it was 0.294 µM and 0.288 µM; in [6], 0.3 µM and 0.264 µM. Also, the GI50 is 0.185 µM and 0.181 µM in [7]; 0.224 µM and 0.202 µM in assay [8]; 0.291 µM and 0.233 µM in assay [9]; 0.159 µM and 0.172 µM in assay [10]. The TGI in assay [1] is 0.881 µM and 1.15 µM; in assay [2], 1.33 µM and 3.63 µM; in assay [3], > 2.34 µM and 11.9 µM; in [4] it was above 61.3 µM; in [5] it was > 10 µM and 13.4 µM; in [6], 1.88 µM and 1.59 µM. Moreover, the TGI is 0.642 µM and 0.947 µM in assay [7]; > 2.73 µM and 1.54 µM in assay [8]; > 10 µM and 12 µM in assay [9]; 0.586 µM in [10].
With `CCCC(=O)Nc1cn(COC)c(C(=O)N2C[C@@H]3C[C@]34C2=CC(=O)c2[nH]cc(C)c24)n1`, the GI50 was 3.14 µM in assay [1]; 6.23 µM in assay [2]; 1.27 µM in assay [3]; 3.02 µM in [4]; 4.66 µM in [5]; 4.27 µM in assay [6]. For the same molecule, the results for the GI50 in [7], in assay [9] and in assay [10] were 13.7 µM, 10.7 µM and 14.3 µM, respectively. Further, the TGI in assay [1] is 14.8 µM and 10.1 µM; in assay [2], 13.1 µM and 19.1 µM; in assay [3], 29.5 µM and 10.8 µM; in assay [4], 50 µM and > 100 µM; in assay [5] it was 18.2 µM and 14.3 µM; in [6], 50 µM and 15.8 µM. The TGI was 28.2 µM and 29.4 µM in assay [7]; 30.9 µM and 22.9 µM in [8]; 50 µM and 30.9 µM in assay [9]; 23.1 µM and 28.6 µM in assay [10].
As to `CC(C)C1=Cc2ccc3c(c2C(=O)C1=O)CCCC3(C)C`, the TGI in [1] was 10.5 µM; in [2], 32.7 µM; in [3] it was 12.9 µM; in assay [4] it was above 100 µM; in assay [5], 3.48 µM; in [6], 11 µM. Also, the TGI in [7] stood at 32 µM; in assay [8] it was 13.9 µM; in assay [9], 31.3 µM; in [10] it was 29.3 µM.
For `COC(=O)/C(=N\NC(N)=S)C(C(=O)OC)C(=O)C(=O)Nc1ccc(C)cc1` (centres undefined), the TGI in [1], in [2], in [3], in [4], in [5] and in assay [6] was above 100 µM each time. Besides, the TGI in assay [7], in assay [8], in assay [9] and in assay [10] was above 100 µM throughout.
Take `COc1cc(N=Nc2ccc(O)c3ncccc23)c2ncccc2c1`: the GI50 is 3.43 µM in [1]; 3.65 µM in assay [2]; 3.67 µM in [3]; 3.44 µM in [4]; 1.68 µM in [5]; 2.95 µM in assay [6]. For the same molecule, the GI50 in [7] is 5.57 µM; in assay [8], 4.45 µM; in assay [9], 4.11 µM; in assay [10] it was 4.53 µM. Besides, the TGI in [1] was 24.2 µM; in assay [2], above 100 µM; in assay [3] it was above 100 µM; in assay [4], above 100 µM; in assay [5], above 100 µM; in assay [6], 14 µM. In addition, the TGI in assay [7], in assay [8], in [9] and in assay [10] was above 100 µM throughout.
In the case of `CCN1CCN(c2cc(C)c3cc(NC(=O)c4ccc(OC)c(OC)c4)ccc3n2)CC1`, the GI50 in assay [1] is 7.12 µM; in [2], above 57.3 µM; in [3], above 66.3 µM; in assay [4], 2.75 µM; in [5] it was 11 µM; in assay [6], 5.44 µM. The GI50 was above 30.1 µM in [7], above 100 µM in [8], above 61 µM in [9] and 5.54 µM in assay [10]. Further, the TGI in [1] is above 55.3 µM; in assay [2] it was above 100 µM; in [3], above 100 µM; in [4] it was above 100 µM; in assay [5], above 100 µM; in assay [6], above 44.8 µM. The TGI is above 73.3 µM in assay [7], above 100 µM in assay [8], above 100 µM in [9] and above 61.3 µM in assay [10].
In the case of `Cc1nc(Nc2cccnc2)sc1C(=O)/C=C/c1ccc(F)cc1`, the GI50 in assay [1] is 2.94 µM; in [2], 4.09 µM; in assay [3] it was 2.85 µM; in assay [4], 2.78 µM; in assay [5], 4.29 µM; in [6], 2.46 µM. For the same molecule, the GI50 is 3.85 µM in [7], 3.17 µM in assay [8], 3.34 µM in [9] and 3.42 µM in assay [10]. The TGI is 19.4 µM in assay [1]; 15.5 µM in [2]; above 100 µM in assay [3]; above 100 µM in [4]; above 100 µM in [5]; 7.26 µM in assay [6]. For the same molecule, the TGI in assay [7] is above 100 µM; in assay [8], above 100 µM; in assay [9], 15.9 µM; in assay [10], 67.1 µM.
Consider `CC(=O)ON1CCCC(P(=O)(OCCSC(=O)C(C)(C)C)OCCSC(=O)C(C)(C)C)C1=O` (centres undefined), for which the GI50 was 1.41 µM in assay [1]; 1.42 µM in [2]; 0.808 µM in assay [3]; 0.674 µM in [4]; 1.58 µM in assay [5]; 3.96 µM in assay [6]. The GI50 was 2.86 µM in assay [7], 0.36 µM in assay [8], 1.76 µM in assay [9] and 1.4 µM in [10]. The TGI in assay [1] was 90.4 µM; in [2], 12.4 µM; in [3], 6.27 µM; in assay [4] it was above 100 µM; in assay [5], 26.4 µM; in assay [6] it was 27.4 µM. The TGI in assay [7] stood at 88 µM; in [8] it was 15 µM; in [9] it was 21.9 µM; in assay [10], 23.3 µM.
Take `COC(=O)C1CCCC2(C1)OCCO2` (centres undefined): the TGI in assay [1], in assay [2], in assay [3], in assay [4], in assay [5] and in assay [6] was above 100 µM each time. In addition, the TGI in [7], in [8], in [9] and in assay [10] was above 100 µM throughout.
On to `O=C(NC[C@H](O)CN1CCc2ccccc2C1)c1cc(NC2COC2)ncn1`, for which the GI50 is 12.6 µM in assay [1]; 15.4 µM in assay [2]; 15.7 µM in [3]; 20.3 µM in [4]; 16 µM in assay [5]; 5.09 µM in assay [6]. Further, the GI50 in [7] was 77.2 µM; in assay [8], 18.5 µM; in [9] it was 11.9 µM; in assay [10] it was 12.5 µM. The TGI in assay [1] was 41.9 µM; in assay [2], 29.8 µM; in assay [3], 39.9 µM; in assay [4] it was above 100 µM; in assay [5] it was above 100 µM; in assay [6] it was 45.6 µM. Besides, the TGI in assay [7] is above 100 µM; in assay [8] it was above 100 µM; in assay [9] it was 98 µM; in assay [10], 64.5 µM.
As for `CN1CCC(=O)/C(=C/c2ccccc2)C1`, the TGI in assay [1] is 25.2 µM; in [2], 23.6 µM; in [3], 33.5 µM; in assay [4] it was above 28.9 µM; in assay [5], 32.5 µM; in assay [6] it was 33.3 µM. Also, the TGI in assay [7] is 35.3 µM; in assay [8] it was 28.4 µM; in assay [9], 30.8 µM; in [10], 20.8 µM.
For the molecule `O=[N+]([O-])c1ccc2occ3c2c1CCC3`, the TGI in assay [1], in assay [2], in assay [3], in assay [4], in assay [5] and in [6] was above 100 µM each time. Further, the TGI in assay [7], in assay [8], in assay [9] and in assay [10] was above 100 µM throughout.
As for `COc1ccc(CCN(C)C2CCC(C#N)(c3ccc(OC)c(OC)c3)CC2)cc1OC` (centres undefined), the TGI in assay [1], in assay [2], in assay [3], in assay [4], in assay [5] and in [6] was above 100 µM each time. For the same molecule, the TGI in assay [7], in assay [8], in assay [9] and in assay [10] was above 100 µM throughout.
Turning to `COC(=O)c1c2c(c(C)[n+]([O-])c1C)C(=O)C=C(NCc1ccc(F)cc1)C2=O`, the GI50 was 1.76 µM in [1]; 0.442 µM in assay [2]; 0.363 µM in assay [3]; 0.251 µM in assay [4]; 0.254 µM in assay [5]; 0.641 µM in [6]. Besides, the GI50 was 2.53 µM in [7], 0.345 µM in [8], 1.38 µM in [9] and 1.65 µM in assay [10]. In addition, the TGI in assay [1] amounted to 4.39 µM; in assay [2], 1.77 µM; in assay [3], 1.61 µM; in assay [4] it was 5.04 µM; in [5] it was 1.1 µM; in assay [6] it was 1.87 µM. Also, the TGI in assay [7] stood at 6.45 µM; in [8] it was 1.41 µM; in assay [9], 2.83 µM; in assay [10], 3.03 µM.
For the molecule `Cc1ccccc1C(=O)c1cc(O)ccc1O`, the TGI in [1], in assay [2], in [3], in assay [4], in [5] and in assay [6] was above 100 µM each time. For the same molecule, the TGI in assay [7], in [8], in assay [9] and in assay [10] was above 100 µM in each case.
As for `Cc1nc(N)sc1N=Nc1ccccc1Br`, the TGI is 69.5 µM in assay [1]; 21.7 µM in assay [2]; 64.4 µM in assay [3]; above 100 µM in assay [4]; above 61.9 µM in assay [5]; above 59.5 µM in [6]. For the same molecule, the TGI in [7] was above 100 µM; in assay [8], 57.5 µM; in assay [9] it was above 69.7 µM; in [10], 37.5 µM.
